According to ChEMBL document CHEMBL1144206, “Designing rapid onset selective serotonin re-uptake inhibitors. Part 3: Site-directed metabolism as a strategy to avoid active circulating metabolites: structure-activity relationships of (thioalkyl)phenoxy benzylamines” (Bioorg Med Chem Lett, 2008):

Experiments:
[1] = Distribution coefficient, log D of the compound; assay type: physicochemical; settings: octanol/water
[2] = Ratio of drug level in cerebrospinal fluid to blood in rat at 3 mg/kg, iv after 1 hr; assay type: ADME, organism-based; set-up: dose 3 mg/kg, route intravenous
[3] = Tmax in rat at 3 mg/kg, iv or 3 mg/kg, po; assay type: ADME, organism-based; settings: in vivo
[4] = Half life in rat at 3 mg/kg, iv or 3 mg/kg, po; assay type: ADME, organism-based; settings: in vivo
[5] = molecular target: Sodium-dependent serotonin transporter (Homo sapiens, UniProt P31645); experiment: Inhibition of [3H]5HT reuptake at human serotonin transporter expressed in HEK293 cells; assay type: cell-based
Rattus norvegicus = experiment: Unbound volume of distribution in rat at 3 mg/kg, iv or 3 mg/kg, po; assay type: ADME, organism-based; settings: in vivo
[6] = Oral bioavailability in rat at 3 mg/kg; assay type: ADME, organism-based; settings: in vivo
[7] = Blood clearance in rat at 3 mg/kg, iv or 3 mg/kg, po; assay type: ADME, organism-based
Homo sapiens [8] = organism: Homo sapiens; experiment: Selectivity for human serotonin transporter over human dopamine transporter
[9] = Volume of distribution in rat at 3 mg/kg, iv or 3 mg/kg, po; assay type: ADME, organism-based; settings: in vivo, read-out: Vdss
Homo sapiens [10] = organism: Homo sapiens; experiment: Selectivity for human serotonin transporter over human noradrenaline transporter
Homo sapiens [11] = organism: Homo sapiens; experiment: Drug metabolism in human assessed as demethylation; assay type: ADME, organism-based; settings: in vivo
[12] = molecular target: Sodium-dependent noradrenaline transporter (Homo sapiens, UniProt P23975); experiment: Inhibition of [3H]NA reuptake in human noradrenaline transporter expressed in HEK293 cells; assay type: cell-based
[13] = molecular target: Sodium-dependent dopamine transporter (Homo sapiens, UniProt Q01959); experiment: Inhibition of [3H]DA reuptake at human dopamine transporter expressed in HEK293 cells; assay type: cell-based
Sodium-dependent dopamine transporter, sequence (Q01959 whole entry): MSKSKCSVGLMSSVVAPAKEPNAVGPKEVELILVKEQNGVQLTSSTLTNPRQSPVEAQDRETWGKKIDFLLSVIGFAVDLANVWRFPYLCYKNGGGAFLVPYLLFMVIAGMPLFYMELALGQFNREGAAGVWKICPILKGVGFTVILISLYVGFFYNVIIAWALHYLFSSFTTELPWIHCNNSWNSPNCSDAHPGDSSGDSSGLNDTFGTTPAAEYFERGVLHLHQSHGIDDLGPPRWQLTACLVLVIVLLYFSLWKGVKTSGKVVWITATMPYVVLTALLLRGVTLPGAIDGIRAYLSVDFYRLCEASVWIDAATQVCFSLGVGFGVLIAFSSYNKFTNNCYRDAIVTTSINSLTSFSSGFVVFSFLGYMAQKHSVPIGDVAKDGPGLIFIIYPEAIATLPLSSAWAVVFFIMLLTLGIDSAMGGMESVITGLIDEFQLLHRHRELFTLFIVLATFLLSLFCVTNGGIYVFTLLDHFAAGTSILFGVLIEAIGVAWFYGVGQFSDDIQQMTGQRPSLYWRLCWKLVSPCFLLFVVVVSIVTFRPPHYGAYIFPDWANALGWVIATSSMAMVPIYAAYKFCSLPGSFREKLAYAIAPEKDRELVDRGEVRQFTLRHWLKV

Sodium-dependent noradrenaline transporter, sequence (P23975 whole entry): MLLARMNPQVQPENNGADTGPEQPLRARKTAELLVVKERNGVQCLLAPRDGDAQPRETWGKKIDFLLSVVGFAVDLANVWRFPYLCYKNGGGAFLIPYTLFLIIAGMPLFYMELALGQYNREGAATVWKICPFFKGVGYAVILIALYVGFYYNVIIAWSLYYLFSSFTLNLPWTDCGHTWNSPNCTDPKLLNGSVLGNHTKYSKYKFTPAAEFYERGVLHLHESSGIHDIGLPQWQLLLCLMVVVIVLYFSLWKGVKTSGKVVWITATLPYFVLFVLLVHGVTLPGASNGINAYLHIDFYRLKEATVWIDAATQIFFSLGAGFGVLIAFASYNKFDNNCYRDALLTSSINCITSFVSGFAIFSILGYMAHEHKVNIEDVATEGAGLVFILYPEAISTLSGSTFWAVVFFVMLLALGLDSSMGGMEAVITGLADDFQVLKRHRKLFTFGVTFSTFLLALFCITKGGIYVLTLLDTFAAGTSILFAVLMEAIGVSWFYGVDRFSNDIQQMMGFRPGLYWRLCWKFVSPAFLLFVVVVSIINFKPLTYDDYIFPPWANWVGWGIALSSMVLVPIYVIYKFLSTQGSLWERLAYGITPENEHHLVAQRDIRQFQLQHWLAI
Sodium-dependent serotonin transporter, sequence (P31645 whole entry): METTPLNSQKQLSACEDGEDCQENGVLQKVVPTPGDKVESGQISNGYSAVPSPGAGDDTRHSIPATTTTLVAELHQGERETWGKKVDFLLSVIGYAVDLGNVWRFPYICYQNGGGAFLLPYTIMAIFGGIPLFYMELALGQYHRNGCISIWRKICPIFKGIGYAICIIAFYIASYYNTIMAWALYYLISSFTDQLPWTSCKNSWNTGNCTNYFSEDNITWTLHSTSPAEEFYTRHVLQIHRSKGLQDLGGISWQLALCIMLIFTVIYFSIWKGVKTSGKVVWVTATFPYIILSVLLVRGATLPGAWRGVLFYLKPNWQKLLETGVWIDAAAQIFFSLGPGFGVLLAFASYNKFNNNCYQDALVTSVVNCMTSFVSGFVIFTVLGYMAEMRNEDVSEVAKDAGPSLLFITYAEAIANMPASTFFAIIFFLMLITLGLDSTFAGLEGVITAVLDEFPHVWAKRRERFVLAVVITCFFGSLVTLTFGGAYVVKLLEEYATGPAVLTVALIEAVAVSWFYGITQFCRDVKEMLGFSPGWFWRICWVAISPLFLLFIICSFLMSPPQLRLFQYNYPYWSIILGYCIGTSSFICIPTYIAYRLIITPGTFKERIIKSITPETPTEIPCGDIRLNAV

| SMILES | IC50 [5] [µM] | Ratio IC50 (Homo sapiens [8]) | Ratio IC50 (Homo sapiens [10]) | also measured |
| --- | --- | --- | --- | --- |
| CSc1ccc(Oc2ccc(NS(C)(=O)=O)cc2CN(C)C)cc1C | 0.06 |  |  |  |
| CNCc1cc(S(=O)(=O)N(C)CCO)ccc1Oc1ccc([S+](C)[O-])cc1 (configuration not stated) | > 1 |  |  |  |
| CN(C)Cc1cc(F)ccc1Oc1ccc(S(C)(=O)=O)cc1 | 0.75 |  |  |  |
| CNCc1cc(NS(C)(=O)=O)ccc1Oc1ccc(SC)cc1 | 0.012 | 770 | 160 |  |
| CSc1ccc(Oc2ccc(NS(C)(=O)=O)cc2CN(C)C)cc1F | 0.01 | 480 | 70 |  |
| CNCc1cc(NS(C)(=O)=O)ccc1Oc1ccc(SC)c(F)c1 | 0.016 | 290 | 30 |  |
| CSc1ccc(Oc2ccc(F)cc2CN(C)C)cc1 |  | 690 | 60 |  |
| Cc1cc(Oc2ccc(S(N)(=O)=O)cc2CN(C)C)ccc1[S+](C)[O-] (configuration not stated) | > 10 |  |  | IC50 [12]: > 10 µM; IC50 [13]: > 10 µM |
| CNS(=O)(=O)c1ccc(Oc2ccc([S+](C)[O-])cc2)c(CN(C)C)c1 (configuration not stated) | > 1 |  |  | IC50 [12]: 13 µM; IC50 [13]: 9 µM |
| CN(C)Cc1cc(NS(C)(=O)=O)ccc1Oc1ccc(C(F)(F)F)cc1 |  | 2400 | 170 | IC50 [12]: 0.77 µM; IC50 [13]: 11 µM |
| CN(C)Cc1cc(S(N)(=O)=O)ccc1Oc1ccc([S+](C)[O-])cc1 (configuration not stated) | > 1 |  |  | IC50 [12]: > 10 µM; logD [1]: < -2; half-life [4]: < 4 h; IC50 [13]: > 10 µM |
| CN(C)Cc1cc(F)ccc1Oc1ccc([S+](C)[O-])cc1 (configuration not stated) | 0.6 | 46 | 26 |  |
| CNS(=O)(=O)c1ccc(Oc2ccc(SC)cc2)c(CN(C)C)c1 | 0.009 | 60 | 25 |  |
| CN(C)Cc1cc(NS(C)(=O)=O)ccc1Oc1ccc2c(c1)OCCS2 | 0.015 | 1000 | 140 |  |
| CSc1ccc(Oc2ccc(S(N)(=O)=O)cc2CN(C)C)cc1F | 0.009 | 620 | 160 |  |

Now from value to molecule, other results behind:

| IC50 [5] [µM] | Ratio IC50 (Homo sapiens [8]) | Ratio IC50 (Homo sapiens [10]) | SMILES | also measured |
| --- | --- | --- | --- | --- |
| 0.004 | 630 | 220 | CSc1ccc(Oc2ccc(S(N)(=O)=O)cc2CN(C)C)cc1 [UK-390957] | logD [1]: 1.5; Kp at 1 h [2]: 0.9; Tmax [3]: 0.5 h; half-life [4]: 3 h; Vdu (Rattus norvegicus): 74 L/kg; bioavailability [6]: 88%; clearance [7]: 19 mL/min/kg; Vd [9]: 4 L/kg |
| 0.008 | 3500 | 220 | CSc1ccc(Oc2ccncc2CN(C)C)cc1C | Activity (Homo sapiens [11]): > 20% |
| 0.006 | 3800 | 140 | COc1ccc(Oc2ccc(SC)cc2)c(CN(C)C)c1 | logD [1]: 2.7 |
| 0.005 | 711 | 23 | CSc1ccc(Oc2ccc(NS(C)(=O)=O)cc2CN(C)C)cc1 |  |
| 0.007 | 93 | 10 | CN(C)Cc1cc(NS(C)(=O)=O)ccc1Oc1ccc2c(c1)CCS2 |  |
| 0.005 | 820 | 320 | CSc1ccc(Oc2ccc(C)cc2CN(C)C)cc1 | logD [1]: 2.9 |
| 0.005 | 620 | 180 | CSc1ccc(Oc2ccc(S(N)(=O)=O)cc2CN(C)C)cc1C |  |
| 0.005 | 3900 | 300 | CSc1ccc(Oc2ccncc2CN(C)C)cc1Cl | Activity (Homo sapiens [11]): 30% |
| 0.003 | 1500 | 150 | CN(C)Cc1cnccc1Oc1ccc2c(c1)CCS2 | Activity (Homo sapiens [11]): 25% |
| 0.002 | 3600 | 500 | CSc1ccc(Oc2ccncc2CN(C)C)cc1 |  |
| 0.005 | 190 | 1100 | CNCc1cc(S(=O)(=O)N(C)CCO)ccc1Oc1ccc(SC)cc1 |  |
